US11136336B2, “Thienopyrimidones” (Boehringer Ingelheim International GmbH, priority 2019, dated 2021)

Columns and labels:
[1] = Assay C: Hepatocyte clearance; type: in vitro ADME; settings: human hepatocyte suspension, 1 μM test compound, six hours
Description: Assay C: Hepatocyte Clearance
The metabolic degradation of the test compound is assayed in a hepatocyte suspension. Hepatocytes (cryopreserved) are incubated in. Dulbecco's modified eagle medium (supplemented with 3.5 μg glucagon/500 mL, 2.5 mg insulin/500 mL and 3.75 mg/500 mL hydrocortison) containing 5% or 50% species serum.
Following a 30 min preincubation in an incubator (37° C., 10% CO2) 5 μl of test compound solution (80 μM; from 2 mM in DMSO stock solution diluted 1:25 with medium) are added into 395 μl hepatocyte suspension (cell density in the range 0.25-5 Mio cells/mL depending on the species, typically 1 Mio cells/mL; final concentration of test compound 1 μM, final DMSO concentration 0.05%).
The cells are incubated for six hours (incubator, orbital shaker) and samples (25 μl) are taken at 0, 0.5, 1, 2, 4 and 6 hours. Samples are transferred into acetonitrile and pelleted by centrifugation (5 min). The supernatant is transferred to a new 96-deepwell plate, evaporated under nitrogen and resuspended.
Decline of parent compound is analyzed by HPLC-MS/MS
CLint is calculated as follows CL_[…]=Dose/AUC=(C0/CD)/(AUD+clast/k)×1000/60. C0: initial concentration in the incubation [μM], CD: cell density of vital cells [10e6cells/mL], AUD: area under the data [μM×h], clast: concentration of last data point [μM], k: slope of the regression line for parent decline [h−1].
The calculated in vitro hepatic intrinsic clearance can be scaled up to the intrinsic in vivo hepatic Clearance and used to predict hepatic in vivo blood clearance (CL) by the use of a liver model (well stirred model).

[2] = Assay B: Microsomal clearance; type: in vitro ADME; settings: pooled human liver microsomes, 1 mg/ml protein, 1 μM test compound, 37° C.
Description: Assay B: Microsomal Clearance:
The metabolic degradation of the test compound is assayed at 37° C. with pooled liver microsomes. The final incubation volume of 100 μl per time point contains TRIS buffer pH 7.6 at RT (0.1 M), magnesium chloride (5 mM), microsomal protein (1 mg/ml) and the test compound at a final concentration of 1 μM.
Following a short preincubation period at 37° C., the reactions are initiated by addition of beta-nicotinamide adenine dinucleotide phosphate, reduced form (NADPH, 1 mM) and terminated by transferring an aliquot into solvent after different time points (0, 5, 15, 30, 60 min). Additionally, the NADPH-independent degradation is monitored in incubations without NADPH, terminated at the last time point. The [%] remaining test compound after NADPH independent incubation is reflected by the parameter c(control) (metabolic stability). The quenched incubations are pelleted by centrifugation (10000 g, 5 min).
An aliquot of the supernatant is assayed by LC-MS/MS for the amount of parent compound. The half-life (t1/2 INVITRO) is determined by the slope of the semilogarithmic plot of the concentration-time profile.

human TRPA1 ion channel = human TRPA1 ion channel (Homo sapiens (Human), UniProt O75762); assay: Assay A: TRPA1 cell assay (FLIPR, AITC-induced intracellular calcium); type: cell-based; settings: HEK293 cells over-expressing human TRPA1; agonist AITC 10 μM; FLIPRtetra; read-out: hTRPA1 IC50
Chain of human TRPA1 ion channel (O75762 whole entry): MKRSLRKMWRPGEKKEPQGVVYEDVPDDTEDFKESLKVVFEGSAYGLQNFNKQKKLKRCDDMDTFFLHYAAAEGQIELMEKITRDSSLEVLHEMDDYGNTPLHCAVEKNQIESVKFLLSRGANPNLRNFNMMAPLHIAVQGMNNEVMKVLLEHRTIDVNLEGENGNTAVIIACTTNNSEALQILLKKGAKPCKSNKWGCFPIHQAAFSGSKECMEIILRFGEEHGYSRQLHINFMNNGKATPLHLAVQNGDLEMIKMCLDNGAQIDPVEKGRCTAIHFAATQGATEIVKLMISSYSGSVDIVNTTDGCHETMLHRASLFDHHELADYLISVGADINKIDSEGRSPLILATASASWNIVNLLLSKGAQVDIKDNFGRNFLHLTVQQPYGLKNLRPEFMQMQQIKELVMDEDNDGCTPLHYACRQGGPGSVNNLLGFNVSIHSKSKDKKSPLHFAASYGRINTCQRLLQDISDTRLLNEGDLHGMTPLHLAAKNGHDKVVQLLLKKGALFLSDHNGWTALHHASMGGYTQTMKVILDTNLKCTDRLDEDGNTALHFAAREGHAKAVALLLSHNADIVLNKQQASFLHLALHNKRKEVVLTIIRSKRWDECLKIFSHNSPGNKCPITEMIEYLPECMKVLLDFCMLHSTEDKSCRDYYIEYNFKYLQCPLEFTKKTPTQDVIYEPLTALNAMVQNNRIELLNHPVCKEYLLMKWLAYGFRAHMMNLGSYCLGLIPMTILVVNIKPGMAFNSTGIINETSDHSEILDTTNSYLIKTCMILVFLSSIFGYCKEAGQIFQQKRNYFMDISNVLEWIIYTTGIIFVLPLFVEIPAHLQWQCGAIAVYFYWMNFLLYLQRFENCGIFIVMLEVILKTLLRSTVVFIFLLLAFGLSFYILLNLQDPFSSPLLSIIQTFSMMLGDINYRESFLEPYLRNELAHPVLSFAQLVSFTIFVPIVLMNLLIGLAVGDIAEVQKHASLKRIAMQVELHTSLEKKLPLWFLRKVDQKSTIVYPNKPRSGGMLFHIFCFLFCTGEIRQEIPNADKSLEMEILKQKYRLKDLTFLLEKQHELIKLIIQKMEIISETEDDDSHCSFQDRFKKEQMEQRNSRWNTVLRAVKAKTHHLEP
Description: A human HEK293 cell line over-expressing the human TRPA1 ion channel (Perkin Elmer, Product No. AX-004-PCL) was used as a test system for compound efficacy and potency. Compound activity was determined by measuring the effect of compounds on intracellular calcium concentration induced by AITC (Allylisothiocyanat) agonism in a FLIPRtetra system (Molecular Devices).
The cells were obtained as frozen cells in cryo-vials and stored until use at −150° C. Cells were grown in culture medium (MEM/EBSS medium with 10% FCS and 0.4 mg/ML Geneticin). […] For sub-culturing cells were detached from flasks by Versene. At the day before the assay, cells were detached, washed twice with medium (MEM/EBSS medium with 10% FCS) and 20000 cells in 20p/well were seeded to Poly D-Lysin biocoated 384-well plates (black, clear bottom, Cat. 356697) from Corning. Plates were incubated for 24 hours at 37° C./5% CO2 before use in the assay.
The test compounds were dissolved in 100% DMSO at a concentration of 10 mM and in a first step diluted in DMSO to a concentration of 5 mM, followed by serial dilution steps in 100% DMSO. Dilution factor and number of dilution steps may vary according to needs. Typically 8 different concentrations by 1:5 dilutions were prepared, further intermediate dilutions (1:20) of the substances were carried out with HBSS/HEPES buffer (1×HEPES, Cat.14065 from Gibco, 20 mM HEPES, Cat. 83264 from SIGMA, 0.1% BSA Cat.11926 from Invitrogen, pH 7,4
At the assay day cells were washed 3× with assay puffer, 20 μL buffer remained in the wells after washing. 10 μL Ca6 kit (Cat.R8191 MolecularDevices) loading buffer in HBSS/HEPES was added to the cells and the plates were incubated with lid for 120 minutes at 37°/5% CO2. 10 μL of compound or controls in HBSS/HEPES buffer/5% DMSO from the intermediate dilution plate were carefully added to the wells. […] Finally 10 μL of the agonist AITC 50 μM dissolved in HBSS/HEPES buffer/0.05% DMSO (final concentration 10 μM) was added to the wells followed by an additional read on the FLIPRtetra device for 10 minutes. The area under the signal curve (AUC) after AITC addition was used for IC50/% inhibition calculations
Each assay microtiter plate contained wells with vehicle (1% DMSO) controls instead of compound as controls for AITC induced luminescence (100% CTL; high controls) and wells with vehicle controls without AITC as controls for non-specific changes in luminescence (0% CTL; low controls).
The analysis of the data was performed by the calculation of the area under signal curve of the individual wells. Based on this values the % value for the measurement of each substance concentration was calculated (AUC(sample)−AUC(low))*100/(AUC(high)−AUC(low)) using MegaLab software (in house development). The IC50 values were calculated from the % control values using MegaLab software. Calculation: [y=(ad)/(1+(x/c)^b)+d], a=low value, d=high value; x=conc M; c=IC50 M; b=hill; y=% ctrl

Structure (SMILES)	human Hepatocytes [% Qh] [1]	human LM [% Qh] [2]	IC50 (human TRPA1 ion channel)
Cc1c(C(=O)NCC(C)(C)O)sc2ncn(Cc3nc(C[C@H](O)c4ccc(Cl)cc4)no3)c(=O)c12 [Example 13]	18 % Qh	<23 % Qh	37 nM
Cc1c(C(N)=O)sc2ncn(Cc3nc(C[C@H](O)c4cc(F)cc(F)c4)no3)c(=O)c12 [Example 6]	23 % Qh	<23 % Qh	48 nM
CNC(=O)c1sc2ncn(Cc3nc(C[C@H](O)c4ccc(F)cc4)no3)c(=O)c2c1C [Example 10]	25 % Qh	<23 % Qh	–
CNC(=O)c1sc2ncn(Cc3nc(C[C@H](O)c4ccc5c(c4)OCO5)no3)c(=O)c2c1C [Example 9]	24 % Qh	29 % Qh	78 nM
Cc1c(C(N)=O)sc2ncn(Cc3nc(C[C@H](O)c4ccc5c(c4)OCO5)no3)c(=O)c12 [Example 8]	24 % Qh	<23 % Qh	56 nM
Cc1c(C(N)=O)sc2ncn(Cc3nc(C[C@H](O)c4ccc(F)cc4)no3)c(=O)c12 [Example 4]	29 % Qh	<23 % Qh	33 nM
Cc1c(C(N)=O)sc2ncn(Cc3nc(C[C@H](O)c4ccc(F)c(F)c4)no3)c(=O)c12 [Example 5]	37 % Qh	<23 % Qh	48 nM
Cc1c(C(N)=O)sc2ncn(Cc3nc(C[C@H](O)c4ccc5c(c4)OC(F)(F)O5)no3)c(=O)c12 [Example 7]	39 % Qh	23 % Qh	34 nM

Continued by falling IC50 (human TRPA1 ion channel), values first:

human Hepatocytes [% Qh] [1]	human LM [% Qh] [2]	IC50 (human TRPA1 ion channel)	Structure (SMILES)
24 % Qh	<23 % Qh	33 nM	CNC(=O)c1sc2ncn(Cc3nc(C[C@H](O)c4ccc(F)c(F)c4)no3)c(=O)c2c1C [Example 14]
29 % Qh	<23 % Qh	20 nM	Cc1ccc([C@@H](O)Cc2noc(Cn3cnc4sc(C(N)=O)c(C)c4c3=O)n2)cc1 [Example 2]
36 % Qh	<23 % Qh	19 nM	Cc1c(C(N)=O)sc2ncn(Cc3nc(C[C@H](O)c4cc5ccccc5o4)no3)c(=O)c12 [Example 3]
39 % Qh	<23 % Qh	16 nM	NC(=O)c1sc2ncn(Cc3nc(C[C@H](O)c4ccc(Cl)cc4)no3)c(=O)c2c1Cl [Example 16]
36 % Qh	24 % Qh	15 nM	Cc1c(C(=O)NCC(F)F)sc2ncn(Cc3nc(C[C@H](O)c4ccc(Cl)cc4)no3)c(=O)c12 [Example 12]
25 % Qh	29 % Qh	13 nM	Cc1c(C(N)=O)sc2ncn(Cc3nc(C[C@H](O)c4ccc(Cl)cc4)no3)c(=O)c12 [Example 1, 3-({3-[(2S)-2-(4-chlorophenyl)-2-hydroxyethyl]-1,2,4-oxadiazol-5-yl}methyl)-5-methyl-4-oxo-3H,4H-thieno[2,3-d]pyrimidine-6-carboxamide]
29 % Qh	<23 % Qh	10 nM	CNC(=O)c1sc2ncn(Cc3nc(C[C@H](O)c4ccc(Cl)cc4)no3)c(=O)c2c1C [Example 11]
31 % Qh	<23 % Qh	9 nM	O=C1NCCc2c1sc1ncn(Cc3nc(C[C@H](O)c4ccc(Cl)cc4)no3)c(=O)c21 [Example 15]
